The results in this text go back to EP4755881A1 (Wuhan Createrna Science and Technology Co., Ltd., priority 2023, dated 2025).

One data set has as its target T1, LPAR1 receptor (Homo sapiens, UniProt Q92633).
T1 construct: expressed in transfected cells
Kind of data set: LPAR1 in vitro biological activity evaluation 2: HTRF cAMP kit (LANCE Ultra cAMP Kit) assay in CHO stable transfected cell line expressing the LPAR1 receptor. The class given is cell-based. On the procedure: The inhibitory effects of the compounds of the present disclosure on the LPAR1 receptor were determined using a Chinese hamster ovary (CHO) stable transfected cell line expressing the LPAR1 receptor, through the HTRF cAMP kit (LANCE® Ultra cAMP Kit).
The CHO cell line expressing the LPAR1 receptor was cultured in F-12 medium (Gibco, 117650054) containing 10% fetal bovine serum (FBS, Avantor, 76294-180) and 0.2 mg/mL hygromycin B (Solarbio, H8080-1g) at 37°C with 5% CO2. Cell passage, recovery, and cryopreservation were performed according to conventional methods. The stable transfected cell line was cultured to 80% confluence, digested with trypsin to collect cells, counted, and then seeded at 5 µL/well in a 384-well plate (500 cells/5 µL). The 1× Stimulation Buffer was prepared according to the instructions of the kit (LANCE® Ultra cAMP Kit). 1 µL of the test compound solution (diluted to 10× with 1× Stimulation Buffer) was added to the corresponding experimental wells, followed by centrifugation and incubation at 37°C for 10 minutes. […] 5 µL/well of Eu-cAMP (diluted with Detection buffer) was added to the corresponding experimental wells. 5 µL/well of ULight™-anti-cAMP antibody (diluted with Detection buffer) was added to the corresponding experimental wells, followed by centrifugation and incubation at room temperature for 1 hour. After the incubation was completed, the readings at 665 nm and 620 nm under 330 nm excitation were detected using the HTS high-throughput drug screening multifunctional microplate reader (BMG, PHERAstar FSX). The IC50 values were calculated by fitting nonlinear regression (dose response - variable slope) using GraphPad Prism software.
For orientation: TR-FRET usually uses a lanthanide donor and a delayed reading to cut background.

Data set [1] in a line: Pharmacokinetic study in rats (oral gavage and tail vein injection, plasma LC-MS/MS). As to conditions: rat, 1 mg/kg; for Cmax: read-out: Cmax. The format is in vivo. In short, it runs like this:
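Male SD rats (200–250 g) are dosed orally (fasted; 5% DMSO/5% ethanol/60% PEG400/30% saline) or by tail-vein injection (10% ethanol/20% water/70% PEG400). Plasma sampled up to 24 h is analysed by LC-MS/MS. Non-compartmental analysis yields Cmax, C0, Tmax, AUC and T1/2.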

Setting [2] is: Table 2, read-out: LPAR1 inhibitory activity IC50.

A word on the IC50: it is the concentration needed to halve the response being measured. In general, half-life refers to how long it takes for the measured level to halve. The low end stands for rapid decline, the high end for slow decline. As usually defined, the AUC(0-t) is the area under the concentration-time curve up to a stated or last time point. Lower therefore signals low exposure. As usually defined, the Cmax is the maximum level reached in the sampled fluid or tissue.

Like-named read-outs stand apart in the source and are kept apart here.

T1 sequence (Q92633 whole entry): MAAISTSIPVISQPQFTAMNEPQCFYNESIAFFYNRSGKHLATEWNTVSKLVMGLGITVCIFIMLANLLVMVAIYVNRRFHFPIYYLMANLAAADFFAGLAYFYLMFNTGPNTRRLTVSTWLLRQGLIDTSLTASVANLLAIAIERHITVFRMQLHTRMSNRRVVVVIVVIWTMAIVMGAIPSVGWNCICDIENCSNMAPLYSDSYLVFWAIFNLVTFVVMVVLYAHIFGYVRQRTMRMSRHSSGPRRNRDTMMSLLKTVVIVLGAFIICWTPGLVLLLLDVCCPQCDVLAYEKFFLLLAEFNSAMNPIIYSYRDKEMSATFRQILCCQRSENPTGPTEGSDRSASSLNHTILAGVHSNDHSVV

For `CCc1nc(-c2nnn(C)c2NC(=O)O[C@H](C)C(F)(F)CC)ccc1C#CC1(CC(=O)O)CC(OC)C1` (some centres unmarked) [compound 462], the IC50 at LPAR1 receptor (setting [2]) was determined as 48.7 nM. The half-life in data set [1] (male, SD, iv) was 6.41 h; in data set [1] (male, SD, po), 5.41 h. Also, the AUC(0-t) lay within 5000 to 10000 ng·h/mL in data set [1] (male, SD rats, Iv) and 10000 to 20000 ng·h/mL in data set [1] (male, SD rats, Po). The Cmax in data set [1] (male, SD rats, Iv) fell in the range of 8000 to 12000 ng/mL; in data set [1] (male, SD rats, Po) it was 800 to 5000 ng/mL.
On to `CCC(F)(F)[C@@H](C)OC(=O)Nc1c(-c2ccc(C#CC3(CC(=O)O)CC(OC)C3)c(C(F)(F)F)n2)nnn1C` (some centres unmarked) [compound 463], for which, on LPAR1 receptor (setting [2]), the IC50 is 38.2 nM. In data set [1] (SD rats, Iv), the AUC(0-t) lay in the range of 3000 to 5000 ng·h/mL, the half-life was 5.44 h and the Cmax was in the range of 5000 to 8000 ng/mL. Further, in data set [1] (SD rats, Po), the AUC(0-t) lay in the range of 5000 to 10000 ng·h/mL, the half-life is 5.47 h and the Cmax is 800 to 5000 ng/mL.
Consider `CCC(F)(F)[C@@H](C)OC(=O)Nc1c(-c2ccc(C#CC3(CC(=O)O)CC(OC)C3)c(C)n2)noc1C` (some centres unmarked) [compound 468], for which, on LPAR1 receptor (LPAR1 inhibitory activity IC50, Table 2), the midpoint of inhibition, the IC50, lay at 31.6 nM. In data set [1] (SD rats, Iv), the area under the curve AUC(0-t) was in the range of 3000 to 5000 ng·h/mL, the half-life is 2.35 h and the Cmax was in the range of 800 to 5000 ng/mL. In data set [1] (SD rats, Po), the AUC(0-t) lay in the range of 5000 to 10000 ng·h/mL, the half-life is 2.77 h and the Cmax lay in the range of 200 to 800 ng/mL.
`CCc1nc(-c2noc(C)c2NC(=O)O[C@H](C)C(F)(F)CC)ccc1C#CC1(CC(=O)O)CC(OC)C1` (some centres unmarked) [compound 492]: at LPAR1 receptor (setting [2]), the half-maximal inhibitory concentration (IC50) came to 8.6 nM. Moreover, in data set [1] (SD rats, Iv), the AUC(0-t) was in the range of 5000 to 10000 ng·h/mL, the half-life is 3.92 h and the Cmax lay in the range of 800 to 5000 ng/mL. Besides, in data set [1] (SD rats, Po), the AUC(0-t) lay in the range of 5000 to 10000 ng·h/mL, the half-life is 3.75 h and the highest concentration (Cmax) lay in the range of 800 to 5000 ng/mL.
Take `C[C@H](CC(C)(F)F)OC(=O)Nc1c(-c2ccc(C#CC3(CC(=O)O)CC4(CC4)C3)c(Cl)n2)nnn1C` [compound 502]: on LPAR1 receptor (setting [2]), the IC50 was found to be 7.2 nM.
On the same count and under the same terms, for `CCC(F)(F)[C@@H](C)OC(=O)Nc1c(-c2ccc(C#CC3(CC(=O)O)CC4(CC4)C3)c(Cl)n2)nnn1C` [compound 503] the value was 8.5 nM; for `CCc1nc(-c2nnn(C)c2NC(=O)O[C@H](C)C(F)(F)CC)ccc1C#CC1(CC(=O)O)CC2(CC2)C1` [compound 504], 6.4 nM.
In the case of `CCC(F)(F)[C@@H](C)OC(=O)Nc1c(C)noc1-c1ccc(C#CC2(CC(=O)O)CC(OC)C2)c(C(F)(F)F)n1` (some centres unmarked) [compound 506], the IC50 at LPAR1 receptor (setting [2]) was 20.1 nM. The half-life was 2.51 h in data set [1] (male, SD, iv) and 2.41 h in data set [1] (male, SD, po). Moreover, the exposure AUC(0-t) in data set [1] (male, SD rats, Iv) fell in the range of 10000 to 20000 ng·h/mL; in data set [1] (male, SD rats, Po), 10000 to 20000 ng·h/mL. Further, the Cmax was in the range of 8000 to 12000 ng/mL in data set [1] (male, SD rats, Iv) and 800 to 5000 ng/mL in data set [1] (male, SD rats, Po).
In the case of `CCC[C@@H](C)OC(=O)Nc1c(-c2ccc(C#CC3(CS(=O)(=O)O)CC4(CC4)C3)c(C)n2)nnn1C` [compound 508, (R)-(5-((2-methyl-6-(1-methyl-5-(((pentan-2-yloxy)carbonyl)amino)-1H-1,2,3-triazol-4-yl)pyridin-3-yl)ethynyl)spiro[2.3]hexan-5-yl)methanesulfonic acid], the IC50 at LPAR1 receptor (setting [2]) came to 4 nM.
Still for that read-out and setting: for `CCC[C@@H](C)OC(=O)Nc1c(-c2ccc(C#CC3(P(=O)(O)O)CC4(CC4)C3)c(C)n2)nnn1C` [compound 510] the value was 32.1 nM.
Same read-out and setting: for `CCC(F)(F)[C@@H](C)OC(=O)Nc1c(-c2ccc(C#Cc3cc(C(F)(F)F)ncc3C(=O)O)c(C)n2)nnn1C` [compound 513] the value was 26.5 nM.
